Some test systems named below: 786-0; A549; HT-29; Hs-578T; IGROV-1; KM12; LOX IMVI; MCF7; MDA-MB-231; MDA-N; NCI-H460; PC-3; SK-MEL-5; SNB-19; SR; SW-620; T47D; UACC-62; OVCAR-4; NCI-H226.
Experiment in all cases: NCI-60 cell line screen, 48 h

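Cells were grown in 96-well plates and exposed to each compound for 48 hours at five concentrations; endpoints were interpolated linearly between bracketing concentrations, or set to the highest concentration if not reached. At the GI50, growth is halved.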 Calls of active or inactive are those of the source. Rule as the data show it: active = GI50 up to about 1.1 µM and inactive = higher. Where only a bound is given, the exact number is not on record here.

On to `CCOC(=O)CCC(NC(=O)c1ccc(Nc2nc3ccccc3n3cccc23)cc1)C(=O)OCC` (configuration not stated), for which the GI50 is 17 µM (inactive) in the assay with 786-0; 39.6 µM (inactive) in the assay with A549; 17.9 µM (inactive) in the assay with HT-29; 35.6 µM (inactive) in the assay on Hs-578T; 35.5 µM (inactive) in the assay on IGROV-1; 31.1 µM (inactive) in the assay on KM12. Further, the GI50 in the assay on LOX IMVI was 26.1 µM (inactive); in the assay on MCF7 it was 16.6 µM (inactive); with MDA-MB-231, 21.5 µM (inactive); with MDA-N, 28.4 µM (inactive); in the assay with NCI-H460, 28.7 µM (inactive); in the assay with PC-3, 16.4 µM (inactive). Also, the GI50 is 31 µM (inactive) in the assay with SK-MEL-5; 42.1 µM (inactive) in the assay with SNB-19; 15.3 µM (inactive) in the assay with SR; 81.7 µM (inactive) in the assay on SW-620; < 0.01 µM (active) with T47D; 23.1 µM (inactive) in the assay on UACC-62.
Regarding `Oc1ccc2ccccc2c1CN(Cc1c(O)ccc2ccccc12)C1CCCCC1`, the GI50 is 15.6 µM (inactive) in the assay with 786-0; 19.4 µM (inactive) in the assay with A549; 21.6 µM (inactive) with HT-29; 26.4 µM (inactive) in the assay with Hs-578T; 11.8 µM (inactive) in the assay with IGROV-1; 28.2 µM (inactive) with KM12. The GI50 is 15 µM (inactive) in the assay with LOX IMVI; 15.5 µM (inactive) in the assay with MCF7; 18.5 µM (inactive) in the assay on MDA-MB-231; 15.4 µM (inactive) with MDA-N; 20 µM (inactive) in the assay on NCI-H460; 18.7 µM (inactive) in the assay on OVCAR-4. Further, the GI50 in the assay with PC-3 was 17 µM (inactive); in the assay on SK-MEL-5, 14.9 µM (inactive); in the assay with SNB-19, 28.2 µM (inactive); with SR, 21.3 µM (inactive); in the assay with SW-620, 20.1 µM (inactive); in the assay on T47D, 31.9 µM (inactive). Besides, the GI50 in the assay on UACC-62 was 16.8 µM (inactive).
With `CC[C@@]1(C[C@H]2C[C@@]3(C(=O)OC)c4[nH]c5ccccc5c4CCN3C2=O)COC2(CCCCC2)O1`, the GI50 with 786-0 was 39.9 µM (inactive); with A549 it was 24.5 µM (inactive); with HT-29, 27.4 µM (inactive); in the assay on Hs-578T, 18.9 µM (inactive); with IGROV-1, 43.9 µM (inactive); in the assay with KM12 it was 19.9 µM (inactive). For the same compound, the GI50 with LOX IMVI is 32.8 µM (inactive); in the assay on MCF7 it was 25.5 µM (inactive); in the assay on MDA-MB-231, > 100 µM (inactive); with MDA-N, 43.2 µM (inactive); in the assay with NCI-H460 it was 24.3 µM (inactive); with OVCAR-4, 58.2 µM (inactive). The GI50 in the assay on PC-3 is 15 µM (inactive); in the assay with SK-MEL-5 it was 13.5 µM (inactive); in the assay with SNB-19 it was 12.5 µM (inactive); in the assay with SR it was 31.3 µM (inactive); with T47D, 29.3 µM (inactive); in the assay with UACC-62, 23.5 µM (inactive).
As for `CN(C)c1ccc(/C=C2\N=C(c3ccccc3)N(/N=C3\C(=O)Nc4ccccc43)C2=O)cc1`, the GI50 with 786-0 was 52.4 µM (inactive); with A549, 74.1 µM (inactive); with HT-29 it was 53.8 µM (inactive); with Hs-578T it was 38.8 µM (inactive); in the assay on IGROV-1, 25.9 µM (inactive); in the assay on KM12, 50.9 µM (inactive). Also, the GI50 in the assay with LOX IMVI was 28.8 µM (inactive); with MCF7, 35.8 µM (inactive); in the assay with MDA-MB-231, 92.5 µM (inactive); with MDA-N, 32.7 µM (inactive); with NCI-H460 it was 50.5 µM (inactive); in the assay with OVCAR-4 it was 32.4 µM (inactive). The GI50 with PC-3 was 56.5 µM (inactive); in the assay on SK-MEL-5, 47.8 µM (inactive); with SNB-19 it was > 100 µM (inactive); in the assay with SR, 27 µM (inactive); with SW-620 it was 65 µM (inactive); in the assay on T47D, 41.6 µM (inactive). For the same compound, in the assay on UACC-62, the GI50 is > 100 µM (inactive).
On to `COc1ccccc1/C=N/Nc1nnc2c3ccccc3c3ncccc3c2n1`, for which the GI50 is 28.1 µM (inactive) with 786-0; > 100 µM (inactive) in the assay on A549; 57.4 µM (inactive) with HT-29; 21 µM (inactive) with Hs-578T; 53.1 µM (inactive) in the assay with IGROV-1; > 100 µM (inactive) in the assay with KM12. In addition, the GI50 with LOX IMVI is 64.1 µM (inactive); with MCF7 it was > 100 µM (inactive); in the assay with MDA-MB-231, 26.2 µM (inactive); in the assay with MDA-N, > 100 µM (inactive); with NCI-H460, 45.1 µM (inactive); in the assay on OVCAR-4, 17.8 µM (inactive). Further, the GI50 in the assay with PC-3 was > 100 µM (inactive); with SK-MEL-5, 89.5 µM (inactive); with SNB-19 it was 39.2 µM (inactive); in the assay with SR, 39.9 µM (inactive); in the assay on SW-620 it was > 100 µM (inactive); with T47D, 39.7 µM (inactive). In the assay on UACC-62, the GI50 was 48.8 µM (inactive).
Regarding `O=C(/C=C/C=C/c1ccccc1)c1ccc2c(c1)CCCC2`, the GI50 was 39 µM (inactive) in the assay on 786-0; 49.8 µM (inactive) in the assay with A549; 28.4 µM (inactive) in the assay with HT-29; 4.84 µM (inactive) in the assay with Hs-578T; 42.8 µM (inactive) with IGROV-1; 28.8 µM (inactive) with KM12. For the same compound, the GI50 in the assay with LOX IMVI was 30.1 µM (inactive); in the assay on MCF7, 32 µM (inactive); in the assay on MDA-MB-231, 96.6 µM (inactive); in the assay on MDA-N, 19.6 µM (inactive); in the assay on NCI-H226, 41.1 µM (inactive); in the assay with OVCAR-4 it was 43.7 µM (inactive). The GI50 was 36.5 µM (inactive) in the assay with PC-3; 37.2 µM (inactive) with SK-MEL-5; 97.7 µM (inactive) in the assay on SNB-19; 21.2 µM (inactive) in the assay with SR; 45.8 µM (inactive) with SW-620; 16 µM (inactive) in the assay with T47D. Moreover, the GI50 with UACC-62 is > 100 µM (inactive).
Regarding `C=C1CCCCCCCCCCC12SCCC2CCCCSC` (configuration not stated), the GI50 with 786-0 was 29.2 µM (inactive); in the assay on A549, 34.3 µM (inactive); with HT-29, 22.3 µM (inactive); in the assay on Hs-578T it was 39.4 µM (inactive); in the assay with IGROV-1, 22.5 µM (inactive); in the assay with LOX IMVI it was 19.5 µM (inactive). Further, the GI50 in the assay with MCF7 is 21 µM (inactive); with MDA-MB-231 it was 19.9 µM (inactive); in the assay with MDA-N it was 34.4 µM (inactive); with NCI-H226, 20.4 µM (inactive); with NCI-H460, 34.5 µM (inactive); in the assay on OVCAR-4, 39.8 µM (inactive). The GI50 was 22.6 µM (inactive) with PC-3; 17.3 µM (inactive) in the assay on SK-MEL-5; 21.8 µM (inactive) with SNB-19; 33.1 µM (inactive) in the assay with SR; 20.3 µM (inactive) in the assay with SW-620; 17.9 µM (inactive) in the assay with T47D. Besides, the GI50 in the assay on UACC-62 was 27.1 µM (inactive).
As to `O=C(O)C(=Cc1ccnc2ccccc12)C(=O)O`, the GI50 in the assay on 786-0, in the assay with A549, in the assay on HT-29, in the assay with Hs-578T, in the assay on IGROV-1 and in the assay with KM12 was > 100 µM (inactive) in each case. Besides, the GI50 with LOX IMVI, in the assay on MCF7, in the assay on MDA-MB-231, in the assay on MDA-N, in the assay on NCI-H226 and with NCI-H460 was > 100 µM (inactive) in each case. In addition, the GI50 in the assay on PC-3, with SK-MEL-5, in the assay with SNB-19, in the assay on SR, in the assay on SW-620 and in the assay with T47D was > 100 µM (inactive) throughout. Besides, in the assay on UACC-62, the GI50 is > 100 µM (inactive).
`NC1=Nc2ncccc2C(=O)NN1`: the GI50 was > 10 µM (inactive) in the assay with 786-0; > 10 µM (inactive) in the assay with A549; > 10 µM (inactive) in the assay with HT-29; 0.382 µM (active) in the assay on Hs-578T; > 10 µM (inactive) with IGROV-1; > 10 µM (inactive) in the assay on KM12. The GI50 with LOX IMVI, with MCF7, in the assay with MDA-MB-231, with MDA-N, in the assay on NCI-H226 and in the assay with NCI-H460 was > 10 µM (inactive) throughout. Besides, the GI50 with PC-3, in the assay with SK-MEL-5, in the assay on SNB-19, with SR, with SW-620 and in the assay on T47D was > 10 µM (inactive) each time. The GI50 with UACC-62 is > 10 µM (inactive).
In the case of `COC(=O)C12CCC(C(=O)OC)(Cc3c(c4ccccc4n3S(=O)(=O)c3ccccc3)C1)C2=O` (configuration not stated), the GI50 in the assay on 786-0 was > 42.1 µM (inactive); in the assay on A549 it was > 46 µM (inactive); in the assay with HT-29, > 46.3 µM (inactive); in the assay with Hs-578T it was > 46.6 µM (inactive); in the assay with IGROV-1, > 26.7 µM (inactive); with KM12, > 100 µM (inactive). For the same compound, the GI50 in the assay with LOX IMVI is > 59.3 µM (inactive); in the assay with MCF7, 63.8 µM (inactive); in the assay with MDA-MB-231 it was > 100 µM (inactive); in the assay with MDA-N, > 100 µM (inactive); in the assay on NCI-H460 it was > 67 µM (inactive); in the assay on OVCAR-4, > 61.7 µM (inactive). In addition, the GI50 in the assay with PC-3 is > 63.5 µM (inactive); in the assay on SK-MEL-5 it was 9.29 µM (inactive); in the assay on SNB-19 it was > 56.4 µM (inactive); with SR, > 100 µM (inactive); in the assay with SW-620, > 100 µM (inactive); with T47D, > 100 µM (inactive). Further, the GI50 in the assay on UACC-62 is > 40.5 µM (inactive).
Regarding `CC(NNC(=O)c1ccncc1)c1ccc(F)cc1` (configuration not stated), the GI50 in the assay with 786-0, in the assay on A549, in the assay on HT-29, in the assay on Hs-578T, in the assay with IGROV-1 and in the assay with KM12 was > 100 µM (inactive) throughout. Moreover, the GI50 with LOX IMVI, with MCF7, in the assay with MDA-MB-231, with MDA-N, with NCI-H226 and with NCI-H460 was > 100 µM (inactive) each time. For the same compound, the GI50 with OVCAR-4, in the assay with PC-3, in the assay with SK-MEL-5, in the assay with SNB-19, in the assay with SW-620 and with T47D was > 100 µM (inactive) in each case. For the same compound, the GI50 in the assay with UACC-62 is > 100 µM (inactive).

For the origin of these results see ChEMBL document CHEMBL1201862, “PubChem BioAssay data set” (2004).
